Data published in patent publication US20170065327A1, “METHODS AND MATERIALS FOR TREATING ELEVATED SYMPATHETIC NERVE ACTIVITY CONDITIONS” (Mayo Foundation for Medical Education and Research, priority 2014, published 2017).

Columns and labels:
[1] = tested on: young and older postmenopausal women; assay: Autonomic (ganglionic) blockade with trimethaphan camsylate in young and older postmenopausal women: muscle sympathetic nerve activity, arterial pressure, total peripheral resistance; assay type: in vivo, human; settings: during trimethaphan
Description: (§1) FIG. 1 is a graph plotting muscle sympathetic nerve activity (MSNA; bursts/min) as measured using a microneurography technique for 24 humans. The dose indicates the amount of trimethaphan in mg/min it took to abolish the sympathetic nerve bursts. The MSNA bursts per minute is the amount of sympathetic bursts that occurred at baseline, prior to drug infusion.
(§2) FIG. 2 is a graph plotting the same dose of trimethaphan in mg/min compared to the difference in mean arterial pressure (MAP) between baseline and at the final trimethaphan dose.
The effect of ganglionic blockade on arterial blood pressure and how this relates to baseline muscle sympathetic nerve activity in 12 young (25±1 years) and 12 older postmenopausal (61±2 years) women were examined. The women were studied before and during autonomic blockade using trimethaphan camsylate. At baseline, muscle sympathetic nerve activity burst frequency and burst incidence were higher in the older women (33±3 versus 15±1 bursts/min; 57±5 versus 25±2 bursts/100 heartbeats, respectively; P<0.05). Muscle sympathetic nerve activity bursts were abolished by trimethaphan within minutes (e.g., between about 6 and about 35 minutes). […] Baseline muscle sympathetic nerve activity was associated with the decrease in mean arterial pressure during trimethaphan (r=−0.74; P<0.05). See, also, Barnes et al., Hypertension, 63:303-308 (2014).

healthy humans = assay: Brief escalating infusion of trimethaphan camsylate with non-invasive beat-to-beat arterial pressure measurement to distinguish high and low sympathetic activity individuals; assay type: in vivo, human; settings: infusion 1-4 mg/minute for 5-10 minutes, 24 healthy humans
Description: as §1, §2
Both normal human subjects and patients with diseases such as resistant hypertension can have very wide ranges of baseline sympathetic activity. The following was developed to distinguish those individuals with high levels of baseline sympathetic activity from individuals with lower levels of baseline sympathetic activity. Trimethaphan camsylate, a ganglionic blocking drug, was administered (e.g., by infusion) at 1-4 mg/minute for 5-10 minutes to 24 healthy humans, while non-invasive beat-to-beat measurements of arterial pressure were made. […] The relationship between the fall in blood pressure and baseline sympathetic activity in a group of about 20-30 healthy women ranging in age from their early 20's to their later 60's was determined (FIGS. 1 and 2). Similar data were obtained using healthy men. […]

[2] = older postmenopausal women (61±2 years, n=12), P<0.01 versus young

O=C1N(Cc2ccccc2)C2C[S+]3CCCC3C2N1Cc1ccccc1 (stereo not drawn) [trimethaphan, trimethaphan camsylate]
Muscle sympathetic nerve activity bursts ([1]; 12 young and 12 older postmenopausal women): abolished | decrease in mean arterial pressure [1, 2]: −29±2 mm Hg | decrease in total peripheral resistance [1, 2]: −10±1 mm Hg/L per minute | decrease in mean arterial pressure ([1]; young women (25±1 years, n=12)): −9±2 mm Hg | decrease in total peripheral resistance ([1]; young women (25±1 years, n=12)): −5±1 mm Hg/L per minute | fall in blood pressure during brief escalating doses (healthy humans): directly related to baseline sympathetic activity
